Legend:
NAAA = settings: cited from earlier work
rat NAAA = target: T1, rat NAAA (Rattus norvegicus, UniProt Q5KTC7); experiment: NAAA enzymatic assay (recombinant rNAAA protein, LC/MS); type: biochemical; settings: for IC50: IC50 ± S.E.M., triplicate, 25 µM heptadecenoylethanolamide, pH 5.0;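 on all read-outs here: reaction product measured by LC/MS using positive APCI ionization with MRM monitoring, quantified from chromatographic peak areas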
T1 construct: made in house; host or cells: HEK293 cells stably overexpressing rat NAAA (HEK293-rNAAA), a gift from D. Piomelli; crude 800 x g supernatant of sonicated cells
T1 sequence (Q5KTC7 34-362): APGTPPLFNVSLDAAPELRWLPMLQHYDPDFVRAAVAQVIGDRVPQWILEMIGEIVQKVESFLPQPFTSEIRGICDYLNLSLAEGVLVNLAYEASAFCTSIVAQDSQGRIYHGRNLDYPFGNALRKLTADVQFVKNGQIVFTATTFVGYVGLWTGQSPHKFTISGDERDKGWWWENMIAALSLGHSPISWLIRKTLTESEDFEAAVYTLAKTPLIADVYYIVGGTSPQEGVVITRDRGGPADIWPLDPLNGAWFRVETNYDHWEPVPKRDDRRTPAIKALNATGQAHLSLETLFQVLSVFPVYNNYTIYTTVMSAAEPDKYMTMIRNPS
Protocol: (§1) HEK293-rNAAA or HEK293-rFAAH cells were harvested, washed with PBS, sonicated in 20 mM Tris-HCl (pH 7.5) containing 0.32 M sucrose, and centrifuged at 800 × g for 15 min at 4°C. The supernatants were collected and protein concentrations were measured by BCA protein assay kit (Pierce, Shanghai, China). […] The reactions were terminated by adding 0.2 mL methanol containing 1 nmol heptadecanoic acid and analyzed in LC/MS.
(§2) We use an Agilent 1200-LC system coupled to a 3200Q TRAP-MS detector equipped with an ESI interface (Agilent Technologies, Shanghai, China). […] The column temperature was set at 40°C. […] Mass spectrometer (MS) detection was ionized by positive-ion atmospheric pressure chemical ionization mode (APCI^+) and monitored in MRM mode. […] Quantifications were calculated at chromatographic peak areas by using Analyst® version 1.4.1. software (Applied Biosystems).

rat FAAH = target: T2, rat FAAH (Rattus norvegicus, UniProt P97612); experiment: FAAH enzymatic assay (recombinant rFAAH protein, LC/MS); type: biochemical; settings: for IC50: IC50 ± S.E.M., triplicate, 25 µM anandamide, pH 8.0
T2 construct: made in house; host or cells: HEK293 cells stably overexpressing rat FAAH (HEK293-rFAAH), a gift from D. Piomelli; crude cell extract
T2 sequence (P97612 1-579): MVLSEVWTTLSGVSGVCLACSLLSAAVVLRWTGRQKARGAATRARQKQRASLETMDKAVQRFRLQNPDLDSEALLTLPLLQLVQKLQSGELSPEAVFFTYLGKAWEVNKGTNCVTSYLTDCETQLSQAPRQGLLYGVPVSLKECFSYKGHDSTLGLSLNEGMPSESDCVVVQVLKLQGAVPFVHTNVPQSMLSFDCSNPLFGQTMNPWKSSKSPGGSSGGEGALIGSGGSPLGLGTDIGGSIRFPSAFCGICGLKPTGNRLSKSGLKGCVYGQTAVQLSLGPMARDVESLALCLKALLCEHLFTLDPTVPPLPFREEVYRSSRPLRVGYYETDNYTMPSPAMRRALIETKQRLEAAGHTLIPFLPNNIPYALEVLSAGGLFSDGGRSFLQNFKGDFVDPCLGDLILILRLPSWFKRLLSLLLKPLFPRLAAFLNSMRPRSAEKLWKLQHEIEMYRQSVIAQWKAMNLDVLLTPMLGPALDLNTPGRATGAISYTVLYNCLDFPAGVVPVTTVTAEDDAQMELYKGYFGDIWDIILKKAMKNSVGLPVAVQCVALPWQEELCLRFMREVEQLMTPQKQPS
Protocol: as §1, §2

In the case of `O=C(CCc1ccccc1)N[C@H]1COC1=O` [(S)-OOPP, (S)-N-(2-oxo-3-oxetanyl)-3-phenylpropionamide], the “potency as NAAA inhibitor relative to CCP” value (NAAA) is listed as “about 10 fold”.
In the case of `CCCCCCCCCCCCCCCNC(=O)C1CCCCC1` [CCP, N-Cyclohexanecarbonylpentadecylamine], the “mode of NAAA inhibition” value (NAAA) is listed as “reversible and non-competitive”.
`CCCCCCCCCCCCCCCC(=O)N1CCCC1` [Compound 1, 1–Pentadecanyl–carbonyl pyrrolidine] gave an IC50 (rat NAAA) of 25 ± 5.7 µM and an IC50 (rat FAAH) of 21.8 ± 4.45 µM.
For `CCCCCCCCCCCCCCCC(=O)NC1CCCC1` [Compound 2, N–Cyclopentylpalmitamide], the “inhibition ability on NAAA activity (in words)” value (rat NAAA) was “complete loss of the inhibition ability”, the IC50 (rat NAAA) was > 100 µM and the “inhibition ability on FAAH activity (in words)” value (rat FAAH) was “complete loss of the inhibition ability”. The IC50 (rat FAAH) was > 100 µM.
In the case of `CCCCCCCCCCCCCCCC(=O)N1CCCCC1` [Compound 3, Pentadecanyl–carbonyl piperidine], the “inhibition ability on NAAA activity (in words)” value (rat NAAA) is reported as “complete loss of the inhibition ability”, the IC50 (rat NAAA) is reported as > 100 µM and the “inhibition ability on FAAH activity (in words)” value (rat FAAH) is reported as “complete loss of the inhibition ability”. For the same molecule, the IC50 (rat FAAH) was > 100 µM.
With `CCCCCCCCCCCCCCCC(=O)OC1CCCC1` [Compound 4, Cyclopentyl palmitate] the “inhibition ability on NAAA activity (in words)” value (rat NAAA) was “complete loss of the inhibition ability”, the IC50 (rat NAAA) was > 100 µM and the “inhibition ability on FAAH activity (in words)” value (rat FAAH) was “complete loss of the inhibition ability”. The IC50 (rat FAAH) was > 100 µM.
For `CCCCCCCCCCCCCCCC(=O)OC1CCOC1` (stereo not drawn) [Compound 5, Tetrahydrofuran–3–yl palmitate], the “inhibition ability on NAAA activity (in words)” value (rat NAAA) was “complete loss of the inhibition ability”, the IC50 (rat NAAA) was > 100 µM and the “inhibition ability on FAAH activity (in words)” value (rat FAAH) was “complete loss of the inhibition ability”. For the same molecule, the IC50 (rat FAAH) was > 100 µM.
In the case of `CCCCCCCCCCCCCCCC(=O)n1cccc1` [Compound 6, 1–Pentadecanyl–carbonyl pyrrole], the melting point is reported as 57.9 to 60.2 °C, the “inhibition ability on NAAA activity (in words)” value (rat NAAA) is reported as “complete loss of the inhibition ability” and the IC50 (rat NAAA) is reported as > 100 µM. The “inhibition ability on FAAH activity (in words)” value (rat FAAH) was “complete loss of the inhibition ability” and the IC50 (rat FAAH) was > 100 µM.
In the case of `O=C(Cc1ccccc1)N1CCCC1` [Compound 7, 1–Benzyl–carbonyl pyrrolidine], the IC50 (rat NAAA) is reported as > 100 µM and the IC50 (rat FAAH) is reported as > 100 µM.
In the case of `O=C(CCc1ccccc1)N1CCCC1` [Compound 8, 1–(2–Phenylethyl)–carbonyl pyrrolidine], the IC50 (rat NAAA) is reported as > 100 µM and the IC50 (rat FAAH) is reported as > 100 µM.
For `O=C(CCCc1ccccc1)N1CCCC1` [Compound 9, 1–(3–Phenylpropanyl)–carbonyl pyrrolidine], the IC50 (rat NAAA) was > 100 µM and the IC50 (rat FAAH) was > 100 µM.
In the case of `O=C(CCCCc1ccccc1)N1CCCC1` [Compound 10, 1–(4–Phenylbutanyl)–carbonyl pyrrolidine], the IC50 (rat NAAA) is reported as 38.2 ± 3.79 µM and the IC50 (rat FAAH) is reported as > 100 µM.
In the case of `O=C(CCCCCc1ccccc1)N1CCCC1` [Compound 11, 1–(5–Phenylpentanyl)–carbonyl pyrrolidine], the IC50 (rat NAAA) is reported as 34.6 ± 4.82 µM and the IC50 (rat FAAH) is reported as > 100 µM.
For `O=C(CCCCCCc1ccccc1)N1CCCC1` [Compound 12, 1–(6–Phenylhexanyl)–carbonyl pyrrolidine], the IC50 (rat NAAA) was 12.9 ± 3.47 µM and the IC50 (rat FAAH) was > 100 µM.
In the case of `O=C(CCCCCCCc1ccccc1)N1CCCC1` [Compound 13, 1–(7–Phenylheptanyl)–carbonyl pyrrolidine], the IC50 (rat NAAA) is reported as 37.9 ± 4.58 µM and the IC50 (rat FAAH) is reported as > 100 µM.
With `O=C(c1ccc(-c2ccccc2)cc1)N1CCCC1` [Compound 14, 1–(Biphenyl–4–ylcarbonyl)pyrrolidine] the IC50 (rat NAAA) was > 100 µM and the IC50 (rat FAAH) was > 100 µM.
For `O=C(Cc1ccc(-c2ccccc2)cc1)N1CCCC1` [Compound 15, 1–(4–Phenylbenzyl)–carbonyl pyrrolidine], the IC50 (rat NAAA) was > 100 µM and the IC50 (rat FAAH) was > 100 µM.
With `O=C(Cc1ccc(OCc2ccccc2)cc1)N1CCCC1` [Compound 17, 1–(4–Benzyloxy)benzyl–carbonyl pyrrolidine] the IC50 (rat NAAA) was > 100 µM and the IC50 (rat FAAH) was > 100 µM.
For `O=C(CCc1ccc(OCc2ccccc2)cc1)N1CCCC1` [Compound 18, 1–(2–(4–Benzyloxy)phenyl)ethyl–carbonyl pyrrolidine], the IC50 (rat NAAA) was > 100 µM and the IC50 (rat FAAH) was > 100 µM.
For `O=C(c1ccc2ccccc2c1)N1CCCC1` [Compound 19, 1–(2–Naphthalenyl)carbonyl pyrrolidine], the IC50 (rat NAAA) was > 100 µM and the IC50 (rat FAAH) was > 100 µM.
For `O=C(Cc1ccc2ccccc2c1)N1CCCC1` [Compound 20, 1–(2–Naphthalenyl)acetyl pyrrolidine], the IC50 (rat NAAA) was > 100 µM and the IC50 (rat FAAH) was > 100 µM.
In the case of `O=C(NCc1ccc(-c2ccccc2)cc1)N1CCCC1` [Compound 21, N–(Biphenyl–4–ylmethyl)pyrrolidinyl–1–carboxamide], the “inhibition ability on NAAA activity (in words)” value (rat NAAA) is reported as “full loss of inhibition”, the IC50 (rat NAAA) is reported as > 100 µM and the “inhibition ability on FAAH activity (in words)” value (rat FAAH) is reported as “full loss of inhibition”. The IC50 (rat FAAH) was > 100 µM.
In the case of `O=C(OCc1ccc(-c2ccccc2)cc1)N1CCCC1` [Compound 22, Biphenyl–4–ylmethyl pyrrolidinyl–1–carboxylate], the “inhibition ability on NAAA activity (in words)” value (rat NAAA) is reported as “full loss of inhibition”, the IC50 (rat NAAA) is reported as > 100 µM and the “inhibition ability on FAAH activity (in words)” value (rat FAAH) is reported as “full loss of inhibition”. The IC50 (rat FAAH) was > 100 µM.
With `O=C(NCc1ccc(-c2ccccc2)cc1)C1CCCC1` [Compound 23, 4–Phenylbenzyl cyclopentanyl carboxamide] the melting point was 151.8 to 154.6 °C, the “inhibition ability on NAAA activity (in words)” value (rat NAAA) was “full loss of inhibition” and the IC50 (rat NAAA) was > 100 µM. The “inhibition ability on FAAH activity (in words)” value (rat FAAH) was “full loss of inhibition” and the IC50 (rat FAAH) was > 100 µM.
With `O=C(OCc1ccc(-c2ccccc2)cc1)C1CCCC1` [Compound 24, 4–Phenylbenzyl cyclopentanyl carboxylate] the “inhibition ability on NAAA activity (in words)” value (rat NAAA) was “full loss of inhibition”, the IC50 (rat NAAA) was > 100 µM and the “inhibition ability on FAAH activity (in words)” value (rat FAAH) was “full loss of inhibition”. For the same molecule, the IC50 (rat FAAH) was > 100 µM.
With `c1ccc(-c2ccc(CCCN3CCCC3)cc2)cc1` [Compound 25, 1–(3–Biphenyl–4–ylpropyl)pyrrolidine] the “inhibition ability on NAAA activity (in words)” value (rat NAAA) was “full loss of inhibition”, the IC50 (rat NAAA) was > 100 µM and the “inhibition ability on FAAH activity (in words)” value (rat FAAH) was “full loss of inhibition”. The IC50 (rat FAAH) was > 100 µM.

— paper PMC3423427, “Design and Synthesis of Potent N-Acylethanolamine-hydrolyzing Acid Amidase (NAAA) Inhibitor as Anti-Inflammatory Compounds” (PLoS ONE, 2012)
